Columns and labels:
[1] = system: L. (V.) braziliensis intramacrophage amastigotes; assay: Treatment of RAW 264.7 macrophages infected with L. (V.) braziliensis (intramacrophage amastigotes); assay type: cell-based, Leishmania (Viannia) braziliensis; settings: RAW 264.7 infected with L. (V.) braziliensis, 72 h of treatment
Description: RAW 264.7 macrophages (1 × 10^6 cells/mL) were seeded in 24-well plates containing sterile glass slides, and approximately 500 μL of supplemented DMEM medium was added. The plates were then incubated at 37 °C with 5% CO2 for 4 h to facilitate cell adhesion. Following the adhesion period, promastigotes (1 × 10^7) in the stationary growth phase were introduced into the wells for infection. The plates were then incubated for an additional 4 h to allow infection to take place. Afterward, the medium was carefully removed, and the wells were washed three times with PBS to eliminate any nonadherent cells. Fresh medium containing serial concentrations of the test substances, ranging from 0.78 to 25 μmol/L, was added to the wells. Additionally, a range of concentrations of glucantime (25 to 800 μmol/L) was included for comparison. The treatment was carried out for 72 h in an incubator at 37 °C with 5% CO2. At the end of the 72 h treatment period, the glass lamina was removed from each well and stained using rapid panoptic stain (Laborklin®, Curitiba, Paraná, Brazil). The stained samples were mounted on permanent slides using Entelan® (Sigma-Aldrich, St. Louis, MO, USA), and antileishmanial activity was assessed by measuring the infection rate and counting the number of amastigotes per macrophage. Quantification was performed using light microscopy at a magnification of 1000×, and a total of 300 macrophages per lamina were evaluated. As a negative control, half DMEM containing 0.2% DMSO was used.

TNF-α = assay: Cytokine production in supernatant of infected macrophages (ELISA), TNF-α; assay type: cell-based, murine; settings: supernatant of RAW 264.7 macrophages infected with L. (V.) braziliensis
Description: To assess the production of cytokines TNF-α and IL-12 (associated with Th1 response), as well as IL-10 and IL-6 (associated with Th2 response), in the supernatants of the macrophage infection assay, the sandwich enzyme-linked immunosorbent assay (ELISA) method was employed, following the manufacturer’s instructions (eBioscience^TM, San Diego, CA, USA). Initially, capture antibodies specific to TNF-α, IL-6, IL-10, and IL-12 were sensitized in ELISA plates (NUNC-ImmunoTM, Sigma-Aldrich, St. Louis, MO, USA). The plates were incubated at 4 °C for 18 h. After the incubation period, all wells were washed with a solution containing 0.05% PBS and Tween 20 (Sigma-Aldrich, St. Louis, MO, USA). A blocking solution containing 10% FBS in PBS was added to the wells and incubated for 1 h. Subsequently, the wells were washed again. The supernatant obtained from the macrophage infection assay was added to the respective wells. Known concentrations of recombinant cytokines (TNF-α, IL-10, IL-6, and IL-12) were also added to the plate in parallel, covering a range from high to low concentrations. The plates were maintained at 4 °C for another 18 h. Following this incubation, additional washes were performed. The detector complex, consisting of biotinylated detection antibodies, was added to the wells. The plates were incubated for an additional hour. After another round of washing, the enzymatic complex avidin-peroxidase was added to each well. The plates were incubated for 30 min at room temperature. The reaction was initiated by adding a substrate solution containing tetramethylbenzidine and hydrogen peroxide. This reaction was allowed to proceed for 15 min. To stop the reaction, 1N sulfuric acid was added to each well. The absorbance was measured in a plate reader at a wavelength of 450 nm. The concentration of cytokines (TNF-α, IL-10, IL-6, and IL-12) in the supernatants was determined by interpolation from the standard curve.

[2] = Cell toxicity, MTT-based EZ4U assay, HEK-293; parameters: species or system human; settings: human, HEK-293 cells (embryonic kidney), HEK, 72 h
Description: (§1) In this study, we utilized the RAW 264.7 macrophages line (obtained from ATCC: code TIB-71™),human embryonic kidney cell line HEK-293 (obtained from ATCC: code CRL-1573™)and two human cancer cell cultures: the colon carcinoma cell line CaCo-2 and the adenocarcinomic human alveolar basal epithelial cell A549 (also obtained from ATCC: codesHTB-37™ and CCL-185™).These cell lines were cultured in Dulbecco’s modified Eagle medium (DMEM) from Gibco by Life Technologies (LifeTech Austria, Vienna, Austria). The growth medium was supplemented with 5% fetal bovine serum (FBS) from Gibco by Life Technologies and 1% penicillin-streptomycin obtained from Sigma-Aldrich (Vienna, Austria). The cells were maintained at 37 °C with 5% CO2 in a humidified incubator, and regular checks for mycoplasma contamination were carried out.
(§2) For experimental purposes, the cells were seeded into 96-well plates at a density of 2 × 10^4 cells/mL, with each well containing 100 µL of the cell suspension. The cells were allowed to adhere for 24 h. […] The stock solutions of these compounds were prepared in water with 10% (v/v) dimethyl sulfoxide (DMSO) and stored at 4 °C.
(§3) To assess cell viability after 72 h of exposure to the compounds, we employed a 3-(4,5-dimethylthiazol-2-yl)-2,5-diphenyltetrazolium bromide (MTT)-based vitality assay kit (EZ4U, Biomedica, Vienna, Austria). Briefly, we added 20 µL of the EZ4U assay solution to each well and incubated the plates in the dark for 2 h. Subsequently, we measured the absorbance using a microplate reader at 450 nm, with 620 nm as a reference to reduce unspecific background values. For reliability, all experiments were conducted three times with triplicate samples.

HEK-293 = assay: Cell toxicity, MTT-based EZ4U assay, HEK-293; parameters: species or system human; settings: HEK-293, 1.56–500 µmol/L
Description: as §1, §2, §3

[3] = Cell toxicity, MTT-based EZ4U assay, A549; parameters: species or system human; settings: human, A549 cells (alveolar basal epithelial adenocarcinoma), 72 h; for viability at 72 h, 2.34 µmol/L: A549, 2.34 µmol/L; for viability at 72 h, 4.6875 µmol/L: A549, 4.6875 µmol/L; for viability at 72 h, 9.375 µmol/L: A549, 9.375 µmol/L; for viability at 72 h, 18.75 µmol/L: A549, 18.75 µmol/L; for viability at 72 h, 37.5 µmol/L: A549, 37.5 µmol/L; for viability at 72 h, 75 µmol/L: A549, 75 µmol/L; for viability at 72 h, 150 µmol/L: A549, 150 µmol/L; for viability at 72 h, 300 µmol/L: A549, 300 µmol/L; for viability at 72 h, 600 µmol/L: A549, 600 µmol/L
Description: as §1, §2, §3

A549 = assay: Cell toxicity, MTT-based EZ4U assay, A549; parameters: species or system human; settings: A549, 1.56–500 µmol/L
Description: as §1, §2, §3

[4] = Leishmania braziliensis, RAW264.7, 72 h

| Compound | EC50 [1, 4] | EC50 [1] | TNF-α level (TNF-α) | viability at 72 h, 2.34 µmol/L [2] | viability at 72 h, 4.6875 µmol/L [2] | viability at 72 h, 9.375 µmol/L [2] | viability at 72 h, 18.75 µmol/L [2] | viability at 72 h, 37.5 µmol/L [2] | viability at 72 h, 75 µmol/L [2] | viability at 72 h, 150 µmol/L [2] | viability at 72 h, 300 µmol/L [2] | viability at 72 h, 600 µmol/L [2] | toxic effects on cell viability (HEK-293) | viability at 72 h, 2.34 µmol/L [3] | viability at 72 h, 4.6875 µmol/L [3] | viability at 72 h, 9.375 µmol/L [3] | viability at 72 h, 18.75 µmol/L [3] | viability at 72 h, 37.5 µmol/L [3] | viability at 72 h, 75 µmol/L [3] | viability at 72 h, 150 µmol/L [3] | further results |
| --- | --- | --- | --- | --- | --- | --- | --- | --- | --- | --- | --- | --- | --- | --- | --- | --- | --- | --- | --- | --- | --- |
| O=C(/N=C(/NCc1ccccc1)Nc1ccc([N+](=O)[O-])cc1)c1ccccc1 [LQOF-G1, (Z)-N-benzoyl-N-benzyl-N-(4-nitrophenyl)guanidine] | 3.65 µM | 3.6 ± 0.2 µM | increased | 99 ± 10% | 104 ± 11% | 125 ± 8.1% | 125 ± 9.4% | 100 ± 11% | 115 ± 7% | 111 ± 5% | 117 ± 6% | 115 ± 10% | No toxic effects | 114 ± 7% | 97 ± 10.7% | 103 ± 8.8% | 103 ± 5.7% | 101 ± 8.3% | 92 ± 9.3% | 100 ± 6.5% | viability at 72 h, 300 µmol/L [3]: 110 ± 7.2%; viability at 72 h, 600 µmol/L [3]: 90 ± 8.3%; toxic effects on cell viability (A549): No toxic effects |
| CC(C)(C)c1ccc(N/C(=N\C(=O)c2ccccc2)NCc2ccccc2)cc1 [LQOF-G6, (Z)-N-benzoyl-N-benzyl-N-(4-tert-butylphenyl)guanidine] | 3.89 µM | 3.9 ± 0.1 µM | increased |  |  |  |  |  |  |  |  |  |  |  |  |  |  |  |  |  |  |
| O=C(/N=C(/NCc1ccc(Cl)cc1Cl)Nc1ccc(Br)cc1)c1ccccc1 [LQOF-G32, (Z)-N-benzoyl-N-(2,4-di-chlorobenzyl)-N-(4-bromophenyl)guanidine] |  |  |  | 93 ± 5.3% | 95 ± 12.7% | 89 ± 7.9% | 94 ± 8.9% | 91 ± 6.9% | 91 ± 13.9% | 94 ± 12.7% | 118 ± 13.9% | 185 ± 10.1% | No toxic effects | 109 ± 9.7% | 157 ± 10.6% | 165 ± 8.1% | 121 ± 3.6% | 118 ± 9.9% | 115 ± 17.5% | 111 ± 15.5% | viability at 72 h, 300 µmol/L [3]: 106 ± 13.8%; viability at 72 h, 600 µmol/L [3]: 95 ± 10.4%; toxic effects on cell viability (A549): No toxic effects |

The next lines start with results.

| EC50 [1, 4] | EC50 [1] | Compound | TNF-α level (TNF-α) | viability at 72 h, 2.34 µmol/L [2] | viability at 72 h, 4.6875 µmol/L [2] | viability at 72 h, 9.375 µmol/L [2] | viability at 72 h, 18.75 µmol/L [2] | viability at 72 h, 37.5 µmol/L [2] | viability at 72 h, 75 µmol/L [2] | viability at 72 h, 150 µmol/L [2] | viability at 72 h, 300 µmol/L [2] | viability at 72 h, 600 µmol/L [2] | toxic effects on cell viability (HEK-293) | viability at 72 h, 2.34 µmol/L [3] | viability at 72 h, 4.6875 µmol/L [3] | viability at 72 h, 9.375 µmol/L [3] | viability at 72 h, 18.75 µmol/L [3] | viability at 72 h, 37.5 µmol/L [3] | viability at 72 h, 75 µmol/L [3] | viability at 72 h, 150 µmol/L [3] | further results |
| --- | --- | --- | --- | --- | --- | --- | --- | --- | --- | --- | --- | --- | --- | --- | --- | --- | --- | --- | --- | --- | --- |
| 4.21 µM | 4.2 ± 0.5 µM | O=C(/N=C(/NCc1ccccc1)Nc1ccc(Br)cc1)c1ccccc1 [LQOF-G2, (Z)-N-benzoyl-N-benzyl-N-(4-bromophenyl)guanidine] | increased | 104 ± 2.9% | 109 ± 9.6% | 103 ± 13.5% | 108 ± 8.6% | 96 ± 2.9% | 99 ± 8.5% | 145 ± 3.3% | 123 ± 7.1% | 133 ± 8.4% | No toxic effects | 106 ± 6.3% | 109 ± 5.5% | 102 ± 10.5% | 89 ± 5.7% | 99 ± 5.2% | 96 ± 7.7% | 109 ± 4.3% | viability at 72 h, 300 µmol/L [3]: 111 ± 9.3%; viability at 72 h, 600 µmol/L [3]: 110 ± 7.9%; toxic effects on cell viability (A549): No toxic effects |
| 8.25 µM | 8.2 ± 0.7 µM | O=C(/N=C(/NCc1ccccc1)Nc1ccc(I)cc1)c1ccccc1 [LQOF-G7, (Z)-N-benzoyl-N-benzyl-N-(4-iodophenyl)guanidine] |  |  |  |  |  |  |  |  |  |  |  |  |  |  |  |  |  |  |  |
